Values after ≈ are worked out from the molar mass of the structure shown. Values joined by “and” are separate entries in the source; they are usually repeats but may differ in a detail not shown here. Equal entries are not always repeated. Where two headings read alike, the source gives them in different places. Marks after values point to notes of the source that are not given here.
Columns and labels:
S. aureus ATCC 29213 = assay: organism not typed
Method: MIC determinations were performed using the broth microdilution method and in line with CLSI guidelines M07 and M100 (refs. [37],[38]). Bacterial inocula were prepared by diluting a 0.5 McFarland suspension in CAMHB or lysogeny broth (LB) specifically for A. baylyi isolates. […] MIC values of all of the tested antibiotics were read as the lowest compound concentration inhibiting bacterial growth by naked eye or beyond which the OD600 ceased to decrease.

CYP2D6 = CYP2D6 (Homo sapiens, UniProt P10635); assay: CYP inhibition; assay type: in vitro ADME
Acetylcholinesterase = molecular target: T1, Acetylcholinesterase (Homo sapiens, UniProt P22303); assay: Off-target screening (CEREP); assay type: biochemical; conditions: read-out: percent inhibition
T1 construct: purchased Eurofins CEREP SA
Method: (§1) Supplementary Table 1 │ Off-target activity screening f or MCP compou nds […]
(§2) The assays given in the table above were conducted at Eurofins CEREP S A (Celle-Lévescault, France) and were run as single point measurements in duplicates in the presence of 10 µ M of the test compound and reported as percent inhibition of the radioligand signal or control enzymatic activity. n.d., not

[1] = molecular target: T2, Angiotensin converting enzyme (Homo sapiens, UniProt P12821); assay: Off-target screening (CEREP); assay type: biochemical; conditions: read-out: percent inhibition
T2 construct: purchased Eurofins CEREP SA
Method: as §1, §2

CDK2 = molecular target: T3, CDK2 (Homo sapiens, UniProt P24941); assay: Off-target screening (CEREP); assay type: biochemical; conditions: read-out: percent inhibition
T3 construct: purchased Eurofins CEREP SA
Method: as §1, §2

Cyclooxygenase 2 = molecular target: T4, Cyclooxygenase 2 (Homo sapiens, UniProt P35354); assay: Off-target screening (CEREP); assay type: biochemical; conditions: read-out: percent inhibition
T4 construct: purchased Eurofins CEREP SA
T4 sequence (P35354 18-604): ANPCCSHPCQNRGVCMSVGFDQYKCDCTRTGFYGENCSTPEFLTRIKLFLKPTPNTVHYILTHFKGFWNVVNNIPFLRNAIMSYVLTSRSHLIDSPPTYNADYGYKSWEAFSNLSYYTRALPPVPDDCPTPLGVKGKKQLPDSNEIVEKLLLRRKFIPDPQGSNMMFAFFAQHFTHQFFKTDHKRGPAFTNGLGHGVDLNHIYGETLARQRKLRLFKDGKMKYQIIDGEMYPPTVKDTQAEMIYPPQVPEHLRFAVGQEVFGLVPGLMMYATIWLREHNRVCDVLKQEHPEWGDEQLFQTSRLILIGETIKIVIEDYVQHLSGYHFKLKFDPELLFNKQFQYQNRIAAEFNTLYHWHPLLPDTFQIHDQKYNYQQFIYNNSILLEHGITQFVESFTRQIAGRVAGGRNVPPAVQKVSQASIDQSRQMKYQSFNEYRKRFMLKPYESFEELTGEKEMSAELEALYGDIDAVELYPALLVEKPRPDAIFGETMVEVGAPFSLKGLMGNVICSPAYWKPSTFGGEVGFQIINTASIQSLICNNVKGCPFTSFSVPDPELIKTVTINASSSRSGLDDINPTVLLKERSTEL
Method: as §1, §2

Matrix metalloprotease-9 = molecular target: T5, Matrix metalloprotease-9 (Homo sapiens, UniProt P14780); assay: Off-target screening (CEREP); assay type: biochemical; conditions: read-out: percent inhibition
T5 construct: purchased Eurofins CEREP SA
Method: as §1, §2

Monoamine oxidase-A = molecular target: T6, Monoamine oxidase-A (Homo sapiens, UniProt P21397); assay: Off-target screening (CEREP); assay type: biochemical; conditions: read-out: percent inhibition
T6 construct: purchased Eurofins CEREP SA
T6 sequence (P21397 1-527): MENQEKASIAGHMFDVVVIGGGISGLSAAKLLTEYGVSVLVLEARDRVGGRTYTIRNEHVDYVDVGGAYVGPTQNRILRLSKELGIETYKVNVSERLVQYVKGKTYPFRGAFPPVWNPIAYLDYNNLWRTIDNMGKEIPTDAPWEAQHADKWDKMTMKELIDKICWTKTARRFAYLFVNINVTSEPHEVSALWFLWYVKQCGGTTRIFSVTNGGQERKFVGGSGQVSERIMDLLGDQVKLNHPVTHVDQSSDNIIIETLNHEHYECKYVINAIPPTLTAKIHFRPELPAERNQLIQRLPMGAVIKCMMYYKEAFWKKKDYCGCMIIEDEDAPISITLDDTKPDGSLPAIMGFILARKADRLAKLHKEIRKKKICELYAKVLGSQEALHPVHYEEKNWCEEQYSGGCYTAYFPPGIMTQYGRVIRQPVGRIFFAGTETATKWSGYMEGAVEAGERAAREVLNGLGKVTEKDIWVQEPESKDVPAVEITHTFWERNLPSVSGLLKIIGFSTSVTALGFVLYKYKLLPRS
Method: as §1, §2

C. albicans ATCC 90028 = assay: microbe, parasite or virus in culture; conditions: Candida albicans, ATCC90028
panel of 50 off-targets = assay: Off-target activity screening, number of hits in panel of 50; assay type: binding; conditions: > 30% inhibition at 10 μM
GSH adduct = assay type: in vitro ADME
[2] = Rat plasma precipitation assay
Method: Whole blood was obtained from WISTAR rats and collected in 1.2 ml heparin tubes for the preparation of heparin plasma. The tubes were then centrifuged for 5 min at 5,200g at room temperature to isolate the plasma supernatant. Test compounds were received as powder and solubilized at various concentrations in 0.9% aqueous sodium chloride solution and adjusted for pH with phosphate-buffered saline (PBS). The assay was conducted in 384-well plates. Rat plasma (10 µl) was added to 10 µl of the various compound solutions. A total of 10 µl of vehicle (0.9% aqueous sodium chloride solution, PBS) added to the plasma was used as a negative control. The absorption was measured at 362 nm. Raw data were obtained as absorbance data. The difference between the absorbance of the sample and the mean absorbance of the vehicle was calculated. The minimum effect concentration was defined as the lowest concentration giving an absorbance difference of OD362 ≥ 0.05.

Abl kinase = molecular target: T7, Abl kinase (Homo sapiens, UniProt P00519); assay: Off-target screening (CEREP); assay type: biochemical; conditions: read-out: percent inhibition
T7 construct: purchased Eurofins CEREP SA
Method: as §1, §2

HIV-1 protease = assay: Off-target screening (CEREP); assay type: biochemical; conditions: 10 µM, duplicates
Method: as §1, §2

Phosphodiesterase 4D2 = molecular target: T8, Phosphodiesterase 4D2 (Homo sapiens, UniProt Q08499); assay: Off-target screening (CEREP); assay type: biochemical; conditions: read-out: percent inhibition
T8 construct: purchased Eurofins CEREP SA
Method: as §1, §2

[3] = test system: GSK-3A (second line so named); assay: Off-target screening (CEREP); assay type: biochemical, human; conditions: 10 µM, duplicates
Method: as §1, §2

CYP2D6, sequence (P10635 whole entry): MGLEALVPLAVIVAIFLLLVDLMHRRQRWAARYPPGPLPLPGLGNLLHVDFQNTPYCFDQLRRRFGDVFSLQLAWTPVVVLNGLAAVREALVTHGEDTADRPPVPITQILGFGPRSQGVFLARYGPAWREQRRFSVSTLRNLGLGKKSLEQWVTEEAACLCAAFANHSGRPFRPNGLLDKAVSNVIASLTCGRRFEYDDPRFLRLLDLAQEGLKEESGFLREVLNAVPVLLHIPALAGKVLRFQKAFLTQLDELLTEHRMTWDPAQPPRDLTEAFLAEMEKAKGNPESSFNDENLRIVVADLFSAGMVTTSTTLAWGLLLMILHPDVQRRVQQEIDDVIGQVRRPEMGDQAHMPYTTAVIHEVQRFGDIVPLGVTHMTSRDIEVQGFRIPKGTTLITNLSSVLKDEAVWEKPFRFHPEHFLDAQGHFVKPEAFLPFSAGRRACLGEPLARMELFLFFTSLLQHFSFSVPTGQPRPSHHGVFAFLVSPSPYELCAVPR
T2 sequence (P12821 30-1306): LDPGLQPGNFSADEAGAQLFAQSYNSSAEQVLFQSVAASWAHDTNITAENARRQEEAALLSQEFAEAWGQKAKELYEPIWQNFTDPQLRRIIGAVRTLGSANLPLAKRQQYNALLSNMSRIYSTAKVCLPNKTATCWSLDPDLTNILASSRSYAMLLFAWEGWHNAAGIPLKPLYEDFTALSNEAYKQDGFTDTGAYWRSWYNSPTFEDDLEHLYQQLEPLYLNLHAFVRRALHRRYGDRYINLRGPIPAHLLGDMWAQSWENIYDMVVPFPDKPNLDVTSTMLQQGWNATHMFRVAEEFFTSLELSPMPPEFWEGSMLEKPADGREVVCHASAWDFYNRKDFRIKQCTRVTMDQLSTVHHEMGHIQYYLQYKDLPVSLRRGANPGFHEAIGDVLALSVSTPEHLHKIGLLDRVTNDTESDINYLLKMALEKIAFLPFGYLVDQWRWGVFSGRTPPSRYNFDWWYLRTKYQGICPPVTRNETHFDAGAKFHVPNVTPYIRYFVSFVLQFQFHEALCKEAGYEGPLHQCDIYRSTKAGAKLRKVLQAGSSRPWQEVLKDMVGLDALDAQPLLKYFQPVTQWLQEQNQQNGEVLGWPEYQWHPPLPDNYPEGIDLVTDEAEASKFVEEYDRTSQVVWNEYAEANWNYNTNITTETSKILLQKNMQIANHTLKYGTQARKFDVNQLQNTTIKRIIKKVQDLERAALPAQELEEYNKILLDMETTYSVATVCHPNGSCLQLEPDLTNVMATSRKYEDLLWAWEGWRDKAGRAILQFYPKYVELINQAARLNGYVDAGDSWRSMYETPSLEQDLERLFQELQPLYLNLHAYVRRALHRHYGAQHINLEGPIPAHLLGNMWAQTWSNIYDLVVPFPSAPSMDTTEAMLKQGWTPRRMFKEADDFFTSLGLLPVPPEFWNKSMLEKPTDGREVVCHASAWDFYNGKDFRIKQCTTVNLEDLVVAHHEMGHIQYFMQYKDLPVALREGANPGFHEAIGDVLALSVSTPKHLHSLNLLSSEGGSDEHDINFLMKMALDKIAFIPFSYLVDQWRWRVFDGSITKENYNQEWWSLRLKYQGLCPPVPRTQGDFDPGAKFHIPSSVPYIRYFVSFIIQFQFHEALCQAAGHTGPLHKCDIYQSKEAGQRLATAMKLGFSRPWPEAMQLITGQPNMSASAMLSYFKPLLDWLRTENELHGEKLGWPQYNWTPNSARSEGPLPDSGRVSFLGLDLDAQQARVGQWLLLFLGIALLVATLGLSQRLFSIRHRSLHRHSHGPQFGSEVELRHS
T1 sequence (P22303 32-614): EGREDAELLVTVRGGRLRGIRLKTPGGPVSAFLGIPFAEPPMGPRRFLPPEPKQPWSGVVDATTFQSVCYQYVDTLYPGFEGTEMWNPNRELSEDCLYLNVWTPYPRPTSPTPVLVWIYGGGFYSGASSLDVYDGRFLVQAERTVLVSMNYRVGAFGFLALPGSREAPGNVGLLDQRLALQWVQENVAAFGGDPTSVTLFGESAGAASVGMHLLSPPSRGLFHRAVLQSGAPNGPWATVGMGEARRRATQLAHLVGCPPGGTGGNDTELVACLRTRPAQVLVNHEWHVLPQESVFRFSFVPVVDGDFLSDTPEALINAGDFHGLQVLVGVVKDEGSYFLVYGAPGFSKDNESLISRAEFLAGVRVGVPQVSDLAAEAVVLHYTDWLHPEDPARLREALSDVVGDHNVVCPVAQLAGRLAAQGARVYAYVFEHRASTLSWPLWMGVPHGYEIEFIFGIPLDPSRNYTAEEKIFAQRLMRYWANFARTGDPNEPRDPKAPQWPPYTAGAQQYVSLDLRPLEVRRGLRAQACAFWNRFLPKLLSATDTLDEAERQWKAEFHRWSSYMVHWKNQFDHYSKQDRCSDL
T5 sequence (P14780 94-707): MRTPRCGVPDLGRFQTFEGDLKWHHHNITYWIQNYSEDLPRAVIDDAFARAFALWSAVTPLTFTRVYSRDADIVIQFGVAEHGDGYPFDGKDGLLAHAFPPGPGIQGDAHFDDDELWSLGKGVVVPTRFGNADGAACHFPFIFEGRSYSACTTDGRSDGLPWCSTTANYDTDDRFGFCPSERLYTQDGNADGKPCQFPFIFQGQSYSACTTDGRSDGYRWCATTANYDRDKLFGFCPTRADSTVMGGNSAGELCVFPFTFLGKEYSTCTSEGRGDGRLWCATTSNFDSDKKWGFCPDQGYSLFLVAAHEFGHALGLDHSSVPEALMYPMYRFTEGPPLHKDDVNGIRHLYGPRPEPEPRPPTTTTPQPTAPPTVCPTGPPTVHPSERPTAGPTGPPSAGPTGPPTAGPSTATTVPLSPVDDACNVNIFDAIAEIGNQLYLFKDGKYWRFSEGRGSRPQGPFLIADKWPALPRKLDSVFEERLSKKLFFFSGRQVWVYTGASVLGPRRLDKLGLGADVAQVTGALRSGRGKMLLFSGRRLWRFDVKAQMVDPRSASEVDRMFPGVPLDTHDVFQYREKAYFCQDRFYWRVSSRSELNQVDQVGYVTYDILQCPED
T8 sequence (Q08499 303-809 limits assumed): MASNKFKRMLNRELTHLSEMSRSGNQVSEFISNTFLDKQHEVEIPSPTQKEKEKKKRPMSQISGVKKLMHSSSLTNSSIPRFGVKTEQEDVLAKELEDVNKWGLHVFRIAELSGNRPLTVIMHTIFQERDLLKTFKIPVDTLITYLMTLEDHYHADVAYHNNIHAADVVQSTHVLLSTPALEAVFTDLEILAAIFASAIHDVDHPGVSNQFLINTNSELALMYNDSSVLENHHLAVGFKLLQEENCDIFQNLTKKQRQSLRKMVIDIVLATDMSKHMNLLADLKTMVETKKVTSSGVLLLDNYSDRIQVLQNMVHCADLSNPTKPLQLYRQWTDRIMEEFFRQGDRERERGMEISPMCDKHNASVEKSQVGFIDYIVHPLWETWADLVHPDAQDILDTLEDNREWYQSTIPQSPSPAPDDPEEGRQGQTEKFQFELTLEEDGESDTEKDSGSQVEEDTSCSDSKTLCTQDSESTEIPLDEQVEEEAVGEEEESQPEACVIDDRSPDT
T7 sequence (P00519 whole entry): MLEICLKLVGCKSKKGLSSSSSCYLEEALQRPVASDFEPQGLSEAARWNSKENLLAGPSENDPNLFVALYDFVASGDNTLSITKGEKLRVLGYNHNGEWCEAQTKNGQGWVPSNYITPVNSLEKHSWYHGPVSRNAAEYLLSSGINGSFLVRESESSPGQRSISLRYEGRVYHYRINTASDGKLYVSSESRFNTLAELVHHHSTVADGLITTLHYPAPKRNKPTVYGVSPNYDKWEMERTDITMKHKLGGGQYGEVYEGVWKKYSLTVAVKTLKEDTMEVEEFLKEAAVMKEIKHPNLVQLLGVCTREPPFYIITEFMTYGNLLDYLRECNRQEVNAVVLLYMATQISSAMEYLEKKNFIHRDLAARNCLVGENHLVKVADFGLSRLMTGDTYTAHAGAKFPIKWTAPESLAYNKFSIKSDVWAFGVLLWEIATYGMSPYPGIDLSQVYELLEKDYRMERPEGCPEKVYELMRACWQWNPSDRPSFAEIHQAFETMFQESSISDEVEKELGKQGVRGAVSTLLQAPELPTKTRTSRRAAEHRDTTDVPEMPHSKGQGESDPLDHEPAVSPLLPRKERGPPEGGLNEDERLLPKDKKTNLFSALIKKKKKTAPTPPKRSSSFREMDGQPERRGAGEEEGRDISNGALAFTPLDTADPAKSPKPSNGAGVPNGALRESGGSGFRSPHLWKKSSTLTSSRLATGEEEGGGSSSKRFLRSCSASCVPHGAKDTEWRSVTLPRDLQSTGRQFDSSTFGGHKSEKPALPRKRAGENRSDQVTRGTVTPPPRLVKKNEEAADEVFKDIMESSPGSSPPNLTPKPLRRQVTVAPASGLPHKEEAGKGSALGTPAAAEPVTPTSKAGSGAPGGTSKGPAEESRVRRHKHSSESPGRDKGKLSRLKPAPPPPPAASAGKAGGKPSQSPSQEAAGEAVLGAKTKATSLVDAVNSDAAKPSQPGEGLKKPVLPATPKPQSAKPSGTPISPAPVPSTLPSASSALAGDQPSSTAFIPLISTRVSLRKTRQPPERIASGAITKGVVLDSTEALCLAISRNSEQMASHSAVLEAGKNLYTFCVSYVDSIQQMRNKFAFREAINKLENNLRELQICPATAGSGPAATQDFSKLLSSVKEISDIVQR

CN1C(=O)[C@H](CCCN)NC(=O)[C@H](CCCN)NCc2ccccc2Sc2ccccc2CNC(=O)[C@@H]1Cc1c[nH]c2ccccc12 [RO7036668]
MIC (S. aureus ATCC 29213; Gram-positive bacteria and yeast): 32 to 64 µg/mL (≈ 48.8 to 97.6 µM)
MIC (S. aureus ATCC 29213; Staphylococcus aureus, ATCC29213, CAMHB, mode of at least three replicates (RO7036668 one replicate)): 32 µg/mL (≈ 48.8 µM)
CYP inh. (2D6) (CYP2D6): > 50 µM
inhibition at 10 µM (Acetylcholinesterase; 10 µM, duplicates): 9%
inhibition at 10 µM ([1]; 10 µM, duplicates): -7%
inhibition at 10 µM (CDK2; 10 µM, duplicates): 9%
inhibition at 10 µM (Cyclooxygenase 2; 10 µM, duplicates): 4%
inhibition at 10 µM (Matrix metalloprotease-9; 10 µM, duplicates): 6%
inhibition at 10 µM (Monoamine oxidase-A; 10 µM, duplicates): -2%
MIC (C. albicans ATCC 90028): 64 µg/mL (≈ 97.6 µM)

CN1C(=O)[C@H](CCCCN)NC(=O)[C@H](CCCN)NCc2cccnc2Sc2c(Cl)ccc(Cl)c2CNC(=O)[C@@H]1Cc1c[nH]c2ccccc12 [RO7075573]
MIC (S. aureus ATCC 29213; Staphylococcus aureus, ATCC29213): > 64 µg/mL
MIC 100% (S. aureus ATCC 29213; Study LGC281440): >64 mg/L
MIC 100% (S. aureus ATCC 29213; Study LGC282160): >64 mg/L
MIC 100% (S. aureus ATCC 29213; Study LGC284879): >64 mg/L
MIC 100% (S. aureus ATCC 29213; Study LGC285582): >64 mg/L
MIC 100% (S. aureus ATCC 29213; Study LGC286210): 64 mg/L (≈ 86.5 µM)
MIC 100% (S. aureus ATCC 29213; Study LGC293598): >64 mg/L
MIC 100% (S. aureus ATCC 29213; Study LGC294355): >64 mg/L
MIC 100% (S. aureus ATCC 29213; Study LGC295147): 64 mg/L (≈ 86.5 µM)
MIC 100% (S. aureus ATCC 29213; Study LGC296813): >64 mg/L
MIC 100% (S. aureus ATCC 29213; Study LGC299544): 64 mg/L (≈ 86.5 µM)
MIC 100% (S. aureus ATCC 29213; Study LGC301026): >64 mg/L
MIC 100% (S. aureus ATCC 29213; Study LGC308175): >64 mg/L
MIC 100% (S. aureus ATCC 29213; Study ROC010): 32 mg/L (≈ 43.3 µM)
MIC 100% (S. aureus ATCC 29213; Study ROC012): 32 mg/L (≈ 43.3 µM)
Off-target hits (panel of 50 off-targets): 1 #
Ames (Ames): Negative
CYP inh. (2D6) (CYP2D6): > 50 µM
GSH adduct (GSH adduct): Clean
Threshold concentration for precipitation ([2]; Wistar rat heparin plasma 1:1 with compound in saline/PBS, absorbance difference OD362 ≥ 0.05, n = 1): 0.038 mg/mL and 0.0385 mg/mL
Threshold concentration causing precipitation ([2]; rat plasma): 52 µM
inhibition at 10 µM (Abl kinase): -85%
inhibition at 10 µM (Acetylcholinesterase): 4%
inhibition at 10 µM [1]: -7%
inhibition at 10 µM (CDK2): -5%
inhibition at 10 µM (Cyclooxygenase 2): -46%
percent inhibition (HIV-1 protease): -4%
inhibition at 10 µM (Matrix metalloprotease-9): -31%
inhibition at 10 µM (Monoamine oxidase-A): 3%
inhibition at 10 µM (Phosphodiesterase 4D2): 0%
percent inhibition [3]: 10%
MIC (C. albicans ATCC 90028): > 64 µg/mL
